One data set concerns MCF7 tumors. The data set is described as follows: Antitumor efficacy in xenograft model of SCID-CB17 mice implanted with MCF7 cells. The class given is in vivo. Conditions: per os, qd 5 weeks. On the procedure:
Antitumor efficacy of anticancer compounds in a xenograft model of SCID-CB17 mice implanted with MCF7 cells, and assessment of the substrates phosphorylation.
MCF7 cells are amplified in vitro in complete medium prior implantation. 24h prior cells injection, the mice are implanted with an estrogen pellet (Innovative Research of America at 0.18 mg/pellet).
On the day of injection, cells are harvested, counted thanks to a trypan blue viability dye (acceptability cut-off ≥80% viability), and resuspended in 50:50 PBS:Matrigel at the appropriate concentration. The cells are then injected subcutaneously in the right flank at 5.10^6 cells/mouse in 200 μL PBS:Matrigel within 30 minutes after harvesting, in 120 mice. […]
In order to assess the effectiveness of the compounds on tumorigenesis, tumor volume are measured twice per week for 8 weeks and mice are weighed once per week for 8 weeks.
The sizes of the primary tumors are measured using calipers and the tumor volume (TV) is extrapolated to a sphere using the formula TV=4/3π×r3, by calculating the mean radius from the two measurements. […]

The subject of data set [1] is ER+ and HER2+breast cancer. Conditions: patients, cited from earlier work.
The conditions of data set [2]: Machl et al., 2016; cited from earlier work.
A short description of data set [3]: Plasma and brain concentration after dosing (blood brain barrier crossing), Table A. The class given is in vivo. Conditions: for Concentration: dose 25 mg/kg, administered orally. An excerpt:
The present disclosure also encompasses the advantageous therapeutic use of a quinazoline carboxamide azetidine compound, preferably of 4-[(S)-2-Azetidin-1-yl-1-(4-chloro-3-trifluoromethyl-phenyl)-ethylamino]-quinazoline-8-carboxylic acid amide (M2698) or a pharmaceutically acceptable polymorph, enantiomer, stereoisomer, salt, solvate or tautomer thereof, for treating a metastasized cancer, e.g., a cancer that has spread to the brain, a bone, a lung, the liver, or the central nervous system.

The structures appear in SMILES notation. “Also recorded” adds a separate entry of the source.

Take `CCNCCc1ccc(CN(CC)c2cc(OC)ccc2[C@@H]2CCc3cc(O)ccc3C2)cc1` [Elacestrant, (R)-6-(2-(ethyl(4-(2-(ethylamino)ethyl)benzyl)amino)-4-methoxyphenyl)-5,6,7,8-tetrahydronaphthalen-2-ol, reference compound]: in the data set on MCF7 tumors (Elacestrant 50 mg/kg/day), the “MCF7 tumor growth (tumor volume)” value is “weakly inhibited”.

In the case of `NC(=O)c1cccc2c(N[C@H](CN3CCC3)c3ccc(Cl)c(C(F)(F)F)c3)ncnc12` [M2698, 4-[(S)-2-Azetidin-1-yl-1-(4-chloro-3-trifluoromethyl-phenyl)-ethylamino]-quinazoline-8-carboxylic acid amide], the Tolerability entry in data set [1] (monotherapy and combined with trastuzumab or tamoxifen) was “well tolerated”. In addition, the Efficacy of monotherapy entry in data set [1] (monotherapy) is recorded as “modest”. In addition, in data set [2], the “Crosses the blood-brain barrier” value is given as “crosses the blood-brain barrier”. In the data set on MCF7 tumors (M2698 20 mg/kg/day, 20 mg/kg/day), the “MCF7 tumor growth (tumor volume)” value is reported as “strong antitumor efficacy; also recorded: strongly inhibited tumor growth”. The values for the Concentration in data set [3] (Brain) and in data set [3] (Plasma) were 4000 ng/mL and 1600 ng/mL, respectively. Moreover, the “Ability to cross the blood brain barrier” value in data set [3] (administered orally at 25 mg/kg of body weight) is “able to cross the blood brain barrier”.
